From patent publication US9539232B1, “Calebin A for osteoporosis” (priority 2016, dated 2017)

Legend:
Type in all cases: cell-based, mouse
[1] = system: RANK and c-Fms expression; assay: Immunoblot for M-CSF-induced osteoclast differentiation markers; conditions: 50 mM calebin A 8 h, 20 ng/mL M-CSF 24 h
Procedure: (§1) To determine protein expression levels, the cytoplasmic and whole cell extracts were prepared and were fractionated using 10% sodium dodecyl sulphate polyacrylamide gel electrophoresis (SDSPAGE). After electrophoresis, the proteins were transferred to nitrocellulose membranes, blotted with the relevant antibodies, and detected with enhanced chemiluminescence reagent (GE Healthcare, Piscataway, N.J.).
Further to examine the possible role of calebin A in the regulation of osteoclast differentiation in early stage, the RAW 264.7 cells were pre-treated with calebin A and induced by M-CSF for 24 h.

IκBα = assay: Western blot for IκBα degradation and phosphorylation
Procedure: as §1

[2] = system: RAW 264.7 cells incubated in the presence of U266 cells; assay: Osteoclastogenesis induced by co-culture with U266 multiple myeloma cells (TRAP staining); conditions: calebin A 5 mM, co-incubated 5 days
Procedure: (§2) To determine the effects of calebin A on RANKL-induced osteoclast differentiation, the RAW264.7 cells were cultured at a density of 5×10^3 cells per well in 24-well plates and allowed to adhere overnight. The medium was then replaced and the cells were treated with 5 nM RANKL for 5 days. After the incubation, the cells were subjected to TRAP staining using leukocyte acid phosphatase kit. For co-culture experiments with cancer cells, RAW 264.7 cells were seeded at a density of 5×10^3 cells per well and allowed to adhere overnight. U266 or MDA-MB-231 cells, at a density of 1×10^3 cells per well, were added to the RAW 264.7 cells the following day. The wells were treated with calebin A, and co-cultured for 5 days before being subjected to TRAP staining. For conditioned medium experiments, RAW 264.7 cells were seeded at a density of 5×10^3 cells per well and allowed to adhere overnight. The following day, the medium was replaced with ⅘ of RAW 264.7 medium (DMEM/F12) plus ⅕ of conditioned medium from MDA-MB-231 or U266 cells. For that procedure, the supernatant of cultured cancer cells that had been centrifuged was used. Finally, the RAW264.7 cells were cultured for 5 days and subjected to TRAP staining and an electrophoretic mobility shift assay (EMSA).

RAW 264.7 cells [3] = assay: Osteoclast differentiation assay, RANKL-induced (TRAP staining)
Procedure: as §2

NF-κB activation = assay: Electrophoretic mobility shift assay for NFκB
Procedure: To assess NFκB activation in the nuclear extracts, EMSA was carried out using the procedure described by Y. Li, S. Li, Y. Han, J. Liu, J. Zhang, F. Li, Y. Wang, X. Liu, L. Yao, Eur. J. Pharmacol. 591 (2008) 252-258. In brief, nuclear extracts from untreated and RANKL-treated RAW 264.7 cells were incubated with the 32P-end-labeled 45-mer double-stranded NFκB oligonucleotide ([…] protein with 16 fM DNA) from the HIV long terminal repeat, 5′-[…]-3′(boldface indicates NFκB binding sites), for 30 min at 37° C. The DNA-protein complex formed was separated from free oligonucleotides on 6.6% native polyacrylamide gels. The dried gels were visualized with a Storm 820 molecular imager (Amersham, Piscataway, N.J., USA), and radioactive bands were quantified using a densitometer and Image Quant software ([…]).

[4] = system: p65 transfected RAW 264.7 cells; assay: RANKL-induced osteoclastogenesis after transfection of p65 plasmid; conditions: 5 mM calebin A, 5 nM RANKL, 5 days
Procedure: To determine the role of NF-κB/p65 expression on calebin A-induced inhibition osteoclastogenesis, RAW 264.7 cells (5×10^5 cells/well) were plated in 6-well plates and transiently transfected by the calcium phosphate method with pNF-κB ([…]) and control plasmid pCMVFLAG1 DNA for 24 h. The medium was then replaced, and the cells were treated with RANKL (5 nM) and or calebin A (5 mM) for 5 days. All cells were subjected to TRAP staining using the leukocyte acid phosphatase kit.

[5] = system: RAW 264.7 cells incubated in the presence of MDA-MB-231 cells; assay: Osteoclastogenesis induced by co-culture with MDA-MB-231 breast cancer cells (TRAP staining); conditions: calebin A 5 mM, co-incubated 5 days
Procedure: as §2

RAW 264.7 cells [6] = assay: Cell proliferation assay (MTT); conditions: 1, 2 or 5 mM calebin A, days 1, 3 and 5
Procedure: The effects of calebin A on the proliferation of RAW 264.7 cells were determined by measuring mitochondrial dehydrogenase activity with 3-[4,5-dimethylthiazol-2-yl]-2,5-diphenyl tetrazolium bromide (MTT) as the substrate as described in B. Sung, S. Prasad, V. R. Yadav, S. C. Gupta, S. Reuter, N. Yamamoto, A. Murakami, B. B. Aggarwal, PloS One 8 (2013) e64118. In brief, 3000 RAW264.7 cells (in 0.1 ml media) per well were incubated with various concentrations of calebin A, in triplicate, in 96-well plates at 37° C. for 1, 3, or 5 days. At each interval, MTT solution was added to each well, and the plates were incubated for 2 h at 37° C. An extraction buffer (100 mM) comprised of 20% sodium dodecyl sulphate (SDS) and 50% dimethyl formamide was added, and the cells were incubated overnight at 37° C. to dissolve the formazan formed during the reaction. The absorbance of the coloured product was then measured at 570 nm using a 96-well multiscanner (MRX Revelation, Dynex Technologies, Chantilly, Va.).

ERK1/2 phosphorylation = assay: Western blot for phospho-ERK1/2; conditions: calebin A pretreatment 8 h, RANKL 10 nM
Procedure: as §1

[7] = system: NFATc1, TRAP, cathepsin K and calcitonin R expression; assay: Western blot for RANKL-induced osteoclastogenesis-related marker expression
Procedure: as §1
NFATc1 plays a major role in the regulation of osteoclastogenesis. […] Basically, activation and nuclear translocation of NFATc1 and osteoclast differentiation are mediated by the expression of large number of marker genes, including TRAP, cathepsin K and calcitonin R, regulated by NFATc1. These genes are activated by the RANKL-mediated signalling pathway. Therefore, the effect of calebin A on the expression of RANKL-induced osteoclastogenesis related marker genes, were also examined.

[8] = calebin A 5 mM, measured on day 5

## COc1cc(/C=C/C(=O)COC(=O)/C=C/c2ccc(O)c(OC)c2)ccc1O [Calebin A]
[1]
  M-CSF-induced expression of RANK: downmodulate M-CSF-induced expression of RANK
  c-Fms expression: no significant variation
IκBα; 50 mM calebin A 8 h, ALLN 30 min, RANKL 10 nM 15 min
  IκBα phosphorylation at serines 32 and 36 induced by RANKL and ALLN co-treatment: inhibited the induction of phosphorylation
IκBα; 50 mM calebin A 8 h pretreatment, 10 nM RANKL
  RANKL-induced IκBα degradation (cytoplasmic, western blot): complete inhibition of IκBα degradation
IκBα; calebin A alone, no RANKL
  IκBα phosphorylation by calebin A alone: did not induce phosphorylation of IκBα
IκBα; calebin A pretreatment (8 h), 10 nM RANKL
  RANKL-induced IκBα phosphorylation: phosphorylation was completely inhibited
[2]
  U266 cell-induced differentiation of RAW264.7 cells into osteoclasts: A similar pattern was observed
RAW 264.7 cells [3]; RANKL 5 nM plus calebin A for 3, 4 or 5 days
  Number of TRAP-positive osteoclasts, time course: decreased the number of TRAP-positive osteoclasts in a dose-dependent manner
RAW 264.7 cells [3]; [8]
  Osteoclast formation, calebin A added 1-2 days after RANKL stimulation: substantially inhibited osteoclast formation
  Osteoclast formation, calebin A added at days 3 and 4 after RANKL exposure: no longer prevented osteoclast formation
RAW 264.7 cells [3]; dose of 5 mM, all time points (3, 4, 5 days)
  Inhibition of TRAP-positive osteoclast number at highest dose: strongest inhibition
NF-κB activation; 50 mM calebin A without RANKL for 8 h
  NF-κB activation without RANKL (EMSA): No effect on the activation of NF-κB
NF-κB activation; dose of 50 mM, 8 h pretreatment, RANKL 30 min
  RANKL-induced NF-κB activation (EMSA), dose dependence: completely suppressed NF-κB activation
NF-κB activation; pretreated with various concentrations for 8 h or 50 mM for various times, then RANKL 10 nM 30 min
  RANKL-induced NF-κB activation (EMSA): completely abrogated RANKL-induced NF-κB activation
[4]
  RANKL induced osteoclastogenesis in cells transfected with control plasmid: almost completely inhibited
  RANKL induced osteoclastogenesis in p65 transfected RAW 264.7 cells: minimally inhibited
[5]
  MDA-MB-231 cell-induced differentiation of RAW264.7 cells into osteoclasts: inhibited this differentiation
RAW 264.7 cells [6]
  Proliferation of RAW 264.7 cells (MTT): did not significantly affect the proliferation of RAW 264.7 cells
ERK1/2 phosphorylation
  RANKL-induced ERK1/2 phosphorylation: did not inhibit the RANKL-induced activation of ERK phosphorylation
[7]; 50 mM calebin A 8 h, 10 nM RANKL 24 h
  RANKL-induced NFATc1, TRAP, cathepsin K and calcitonin R expression: inhibits the RANKL-induced NFATc1, TRAP, cathepsin K and calcitonin R expression
[7]; 50 mM calebin A 8 h pretreatment, 10 nM RANKL 24 h
  RANKL-induced NFATc1 expression: abolished the RANKL-induced NFATc1 expression
[7]; calebin A alone, no RANKL
  Expression of TRAP, cathepsin K and calcitonin R with calebin A alone: no effect of calebin A alone
